Test results reported in ChEMBL document CHEMBL5465560, “Selectivity Literature for EUbOPEN Chemogenomic Library” (2024).

How the values were obtained:
[1] = molecular target: Serine/threonine-protein kinase WNK2 (Homo sapiens) (UniProt Q9Y3S1); assay: Selectivity interaction (KinomeScan (DiscoverX)) EUB0000229b WNK2; conditions: at 10 µM
[2] = molecular target: T1, Ephrin type-B receptor 4 (Homo sapiens) (UniProt P54760); assay: Selectivity interaction (KinomeScan (DiscoverX)) EUB0000092b EPHB4; conditions: at 10 µM
T1 sequence (whole entry): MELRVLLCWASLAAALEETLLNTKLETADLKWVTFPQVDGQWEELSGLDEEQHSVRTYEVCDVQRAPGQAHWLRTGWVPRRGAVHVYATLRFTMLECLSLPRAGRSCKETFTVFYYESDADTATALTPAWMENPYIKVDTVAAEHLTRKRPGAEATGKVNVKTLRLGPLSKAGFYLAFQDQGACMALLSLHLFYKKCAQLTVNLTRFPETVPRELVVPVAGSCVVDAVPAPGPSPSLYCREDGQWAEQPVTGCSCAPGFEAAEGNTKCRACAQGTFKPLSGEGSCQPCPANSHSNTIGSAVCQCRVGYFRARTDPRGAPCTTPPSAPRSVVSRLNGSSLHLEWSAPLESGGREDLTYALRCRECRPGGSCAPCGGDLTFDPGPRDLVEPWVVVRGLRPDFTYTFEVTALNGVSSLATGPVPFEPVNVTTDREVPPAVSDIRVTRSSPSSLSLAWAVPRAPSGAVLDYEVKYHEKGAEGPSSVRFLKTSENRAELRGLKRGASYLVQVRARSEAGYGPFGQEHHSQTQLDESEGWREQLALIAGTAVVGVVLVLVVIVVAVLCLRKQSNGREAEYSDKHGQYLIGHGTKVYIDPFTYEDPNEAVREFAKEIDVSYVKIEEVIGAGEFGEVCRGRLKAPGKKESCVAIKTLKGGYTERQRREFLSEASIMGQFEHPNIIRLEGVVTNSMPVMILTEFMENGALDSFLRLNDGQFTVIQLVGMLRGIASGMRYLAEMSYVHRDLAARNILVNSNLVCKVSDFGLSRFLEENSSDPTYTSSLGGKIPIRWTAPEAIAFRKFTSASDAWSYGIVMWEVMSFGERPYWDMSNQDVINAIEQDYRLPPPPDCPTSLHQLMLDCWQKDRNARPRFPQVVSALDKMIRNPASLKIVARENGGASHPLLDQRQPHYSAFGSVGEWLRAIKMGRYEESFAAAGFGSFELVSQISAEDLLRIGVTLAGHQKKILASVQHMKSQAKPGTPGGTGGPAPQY

[3] = molecular target: T2, Mitogen-activated protein kinase kinase kinase 7 (Homo sapiens) (UniProt O43318); assay: Selectivity interaction (LanthaScreen Eu Kinase Binding Assay) EUB0001632a MAP3K7; conditions: at 10 µM
T2 sequence (whole entry): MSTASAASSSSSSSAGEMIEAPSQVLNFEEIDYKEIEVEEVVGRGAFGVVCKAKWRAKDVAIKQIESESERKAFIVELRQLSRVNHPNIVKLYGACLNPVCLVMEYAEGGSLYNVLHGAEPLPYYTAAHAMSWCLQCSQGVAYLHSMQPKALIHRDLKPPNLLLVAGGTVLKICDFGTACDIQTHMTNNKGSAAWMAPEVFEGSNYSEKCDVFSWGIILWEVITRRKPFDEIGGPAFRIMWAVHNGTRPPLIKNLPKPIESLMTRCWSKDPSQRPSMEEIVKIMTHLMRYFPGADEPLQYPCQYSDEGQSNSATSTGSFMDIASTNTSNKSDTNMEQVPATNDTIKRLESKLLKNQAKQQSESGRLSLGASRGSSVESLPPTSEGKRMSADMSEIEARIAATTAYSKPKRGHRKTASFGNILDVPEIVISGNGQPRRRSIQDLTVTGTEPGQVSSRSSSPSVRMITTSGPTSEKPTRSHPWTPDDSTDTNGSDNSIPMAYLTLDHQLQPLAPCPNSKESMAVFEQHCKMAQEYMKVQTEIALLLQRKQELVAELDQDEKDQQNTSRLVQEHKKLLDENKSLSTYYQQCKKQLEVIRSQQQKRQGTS

[4] = molecular target: DNA-dependent protein kinase catalytic subunit (Homo sapiens) (UniProt P78527); assay: Selectivity interaction (ActivX KiNativ screen (kinase selectivity in THP-1 cell lysates)) EUB0000639a PRKDC; type: subcellular; conditions: lysate, at 0.2 µM
[5] = molecular target: Calcium/calmodulin-dependent protein kinase type 1 (Homo sapiens) (UniProt Q14012); assay: Selectivity interaction (Kinase panel (literature)) EUB0001199aCl CAMK1; conditions: at 1 µM
Chain of Calcium/calmodulin-dependent protein kinase type 1 (Homo sapiens) (Q14012 whole entry, looked up): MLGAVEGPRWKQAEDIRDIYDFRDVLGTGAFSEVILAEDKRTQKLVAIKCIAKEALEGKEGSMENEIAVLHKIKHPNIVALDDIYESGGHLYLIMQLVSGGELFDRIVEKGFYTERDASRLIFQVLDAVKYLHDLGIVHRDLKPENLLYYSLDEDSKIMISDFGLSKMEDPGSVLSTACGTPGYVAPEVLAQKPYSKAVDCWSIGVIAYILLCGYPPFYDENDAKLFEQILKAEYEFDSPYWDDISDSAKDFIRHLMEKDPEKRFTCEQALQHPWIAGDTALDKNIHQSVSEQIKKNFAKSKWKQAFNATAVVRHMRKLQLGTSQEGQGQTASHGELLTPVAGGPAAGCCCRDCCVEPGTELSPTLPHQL

[6] = molecular target: Ribosomal protein S6 kinase alpha-5 (Homo sapiens) (UniProt O75582); assay: Selectivity interaction (KinomeScan (DiscoverX)) EUB0001619a RPS6KA5; conditions: at 1 µM
Chain of Ribosomal protein S6 kinase alpha-5 (Homo sapiens) (O75582 whole entry, looked up): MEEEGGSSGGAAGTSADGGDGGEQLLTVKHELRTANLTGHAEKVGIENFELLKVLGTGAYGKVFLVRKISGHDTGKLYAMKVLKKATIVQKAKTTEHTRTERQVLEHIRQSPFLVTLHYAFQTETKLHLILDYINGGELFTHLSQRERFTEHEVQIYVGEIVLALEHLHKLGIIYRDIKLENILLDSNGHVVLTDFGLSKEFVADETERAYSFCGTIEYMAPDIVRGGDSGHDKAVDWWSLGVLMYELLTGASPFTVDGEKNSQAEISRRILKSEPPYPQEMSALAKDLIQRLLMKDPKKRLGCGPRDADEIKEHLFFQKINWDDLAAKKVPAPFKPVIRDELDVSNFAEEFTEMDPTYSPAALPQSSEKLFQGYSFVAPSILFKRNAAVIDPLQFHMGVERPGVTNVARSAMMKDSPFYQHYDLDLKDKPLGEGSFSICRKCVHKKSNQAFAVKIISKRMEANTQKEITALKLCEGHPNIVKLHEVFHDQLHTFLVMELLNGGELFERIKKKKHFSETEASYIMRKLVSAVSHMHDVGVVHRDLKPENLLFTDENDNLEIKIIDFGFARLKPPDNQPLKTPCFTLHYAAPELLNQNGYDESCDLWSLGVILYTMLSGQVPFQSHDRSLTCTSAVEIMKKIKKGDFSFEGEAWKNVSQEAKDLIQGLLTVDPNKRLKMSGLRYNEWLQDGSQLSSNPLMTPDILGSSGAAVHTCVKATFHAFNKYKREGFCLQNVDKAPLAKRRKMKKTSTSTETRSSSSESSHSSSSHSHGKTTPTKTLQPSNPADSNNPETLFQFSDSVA

Chain of Serine/threonine-protein kinase WNK2 (Homo sapiens) (Q9Y3S1 whole entry): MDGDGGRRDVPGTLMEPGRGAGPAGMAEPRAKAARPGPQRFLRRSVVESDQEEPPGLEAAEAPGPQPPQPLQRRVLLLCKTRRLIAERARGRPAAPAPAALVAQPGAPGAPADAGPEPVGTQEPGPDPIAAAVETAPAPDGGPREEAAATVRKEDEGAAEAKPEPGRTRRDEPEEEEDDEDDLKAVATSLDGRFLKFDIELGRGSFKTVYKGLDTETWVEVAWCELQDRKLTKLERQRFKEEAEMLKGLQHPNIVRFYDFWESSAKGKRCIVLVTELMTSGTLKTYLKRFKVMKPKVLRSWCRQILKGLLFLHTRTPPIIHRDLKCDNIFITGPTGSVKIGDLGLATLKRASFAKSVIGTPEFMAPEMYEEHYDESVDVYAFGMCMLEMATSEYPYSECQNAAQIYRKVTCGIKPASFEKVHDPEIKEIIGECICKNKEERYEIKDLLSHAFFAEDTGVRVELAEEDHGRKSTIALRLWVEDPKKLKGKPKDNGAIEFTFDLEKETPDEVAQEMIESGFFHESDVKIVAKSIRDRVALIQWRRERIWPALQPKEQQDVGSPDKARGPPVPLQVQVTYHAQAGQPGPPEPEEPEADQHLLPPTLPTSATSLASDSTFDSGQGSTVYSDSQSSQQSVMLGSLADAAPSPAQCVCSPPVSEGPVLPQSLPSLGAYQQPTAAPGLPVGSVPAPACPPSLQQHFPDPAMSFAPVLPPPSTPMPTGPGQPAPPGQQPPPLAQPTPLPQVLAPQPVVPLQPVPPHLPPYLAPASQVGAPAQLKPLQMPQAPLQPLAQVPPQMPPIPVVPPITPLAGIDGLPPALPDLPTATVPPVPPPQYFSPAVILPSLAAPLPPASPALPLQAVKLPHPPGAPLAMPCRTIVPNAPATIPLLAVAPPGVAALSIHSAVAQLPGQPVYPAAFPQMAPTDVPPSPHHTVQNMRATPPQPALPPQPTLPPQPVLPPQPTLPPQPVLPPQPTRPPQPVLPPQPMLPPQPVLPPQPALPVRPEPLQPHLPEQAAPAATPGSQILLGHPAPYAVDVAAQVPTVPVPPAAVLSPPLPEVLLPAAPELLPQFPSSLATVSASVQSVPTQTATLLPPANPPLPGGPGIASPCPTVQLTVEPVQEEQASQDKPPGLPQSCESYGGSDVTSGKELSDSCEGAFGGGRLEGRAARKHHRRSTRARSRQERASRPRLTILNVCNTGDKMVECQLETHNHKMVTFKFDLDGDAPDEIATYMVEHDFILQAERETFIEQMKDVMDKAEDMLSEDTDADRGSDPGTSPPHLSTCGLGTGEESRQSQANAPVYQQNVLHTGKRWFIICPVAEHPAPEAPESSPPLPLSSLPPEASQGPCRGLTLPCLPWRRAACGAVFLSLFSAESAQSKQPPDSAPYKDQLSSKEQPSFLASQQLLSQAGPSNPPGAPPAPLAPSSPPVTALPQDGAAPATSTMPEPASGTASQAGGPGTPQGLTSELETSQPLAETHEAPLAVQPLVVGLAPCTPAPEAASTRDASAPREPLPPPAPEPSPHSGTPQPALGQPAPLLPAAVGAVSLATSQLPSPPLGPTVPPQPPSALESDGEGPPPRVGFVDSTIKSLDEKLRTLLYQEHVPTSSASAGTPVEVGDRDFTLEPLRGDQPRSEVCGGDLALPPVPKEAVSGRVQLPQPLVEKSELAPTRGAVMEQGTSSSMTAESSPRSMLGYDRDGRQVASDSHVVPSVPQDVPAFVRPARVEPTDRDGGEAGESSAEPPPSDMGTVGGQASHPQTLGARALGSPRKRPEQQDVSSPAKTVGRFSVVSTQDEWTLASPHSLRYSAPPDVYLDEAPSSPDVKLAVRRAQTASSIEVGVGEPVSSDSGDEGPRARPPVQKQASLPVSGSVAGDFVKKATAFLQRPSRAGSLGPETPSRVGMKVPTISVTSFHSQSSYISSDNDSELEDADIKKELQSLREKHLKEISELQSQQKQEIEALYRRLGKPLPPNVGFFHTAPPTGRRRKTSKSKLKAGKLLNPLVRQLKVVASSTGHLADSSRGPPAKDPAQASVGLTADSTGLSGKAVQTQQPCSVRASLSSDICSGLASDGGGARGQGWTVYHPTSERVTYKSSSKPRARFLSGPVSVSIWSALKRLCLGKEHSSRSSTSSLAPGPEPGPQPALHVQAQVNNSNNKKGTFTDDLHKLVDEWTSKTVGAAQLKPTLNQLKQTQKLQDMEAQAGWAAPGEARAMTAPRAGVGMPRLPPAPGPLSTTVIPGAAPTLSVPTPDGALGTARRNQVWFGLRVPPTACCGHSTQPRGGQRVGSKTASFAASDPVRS

COc1cc(N(C)c2ccnc3ccc(C(F)(F)F)cc23)cc(OC)c1OC
% binding [1]: 100%

CCC(=O)N1CCN(c2ccc(-n3c(=O)ccc4cnc5ccc(-c6cnc7ccccc7c6)cc5c43)cc2C(F)(F)F)CC1
% of control [2]: 85%

Cn1cc(-n2cnc3c(NCc4nc5cc(Cl)c(Cl)cc5[nH]4)nc(N4CCOCC4)nc32)cn1
% of inhibition [3]: -112%

CC[C@@H]1[C@H](F)C(=O)N[C@@H]1COc1nccc2cc(C(N)=O)c(OC)cc12 [ZIMLOVISERTIB]
% of inhibition [4]: -5.7%

CN1Cc2nccc(-c3cn(C)nc3-c3ccc(F)cc3)c2C1=O
% of inhibition [5]: -9%

N#Cc1cccc(-c2c[nH]c3ncnc(N4CCOCC4)c23)c1
% of control [6]: 100%
